Assay results as given in patent publication EP3102180B1, “A TOPICAL COMPOSITION” (Unilever N.V., priority 2014, dated 2015).

Legend:
Type in all cases: cell-based
IL-17 [1] = assay: IL-17 ELISA in PBMCs pretreated with active, induced with PMA/ionomycin; conditions: PBMCs pretreated with 0.001% active for 24 hours, induction 24 hours with 25 ng PMA/ 1 µg lonomycin; control 732; lower = more anti-inflammatory
Method: (§1) The procedure used to measure the anti-inflammatory potential of the various samples was as follows: Blood was diluted with equal volume of HBSS or PBS(1:1). The PBMCs were isolated into fresh tube. These PBMC's were then plated in 96 well plate (10^6 cell/well). They were then pretreated with the active (for 24 hours). Induction was then carried out with antigen/mitogen for 24 hours. The cell-supernatant was then taken and frozen. The cytokine levels in these supernatants were detected by ELISA.

TNF-alpha [2] = assay: TNF-alpha ELISA in PBMCs exposed to P.acne (with or without antimicrobial treatment of the bacteria); conditions: Table 10: PBMCs; Andrographolide pre-treatment (0.001% per procedure); P.acne treated with 0.05% Thymol, 0.05% Terpineol or 0.2% Silver Oxide; P.acne alone 635.6
IL-8 [3] = assay: IL-8 ELISA in PBMCs exposed to P.acne (with or without antimicrobial treatment of the bacteria)
Method: Actives/ Compositions as shown in Table-8 were measured for effect on inflammatory marker IL-8 using the following procedure: PBMCs were isolated as discussed before for Example-1. They were then plated in a 96-well plate. In some wells, cells were pre-treated with 0.001% Andrographolide for 24 hours and some wells were not treated with anything. P.acne culture was grown on CY agar medium in aneorobic chamber and then culture was set to the .005 O.D. Bacterial culture was treated with antimicrobial active combination of thymol (0.05%) and terpineol (0.05%) for 30 seconds. After the contact time is over, sample was neutralized in D/E neutralizer. The bacterial pellet was collected by centrifugation. The pellet was re-suspended in cell culture medium and bacterial culture was added to the cells (PBMC's) treated with andrographolide and also bacterial culture was added to the wells where there was no treatment with andrographolide. Live P.acne (not treated with the antimicrobial actives) was added to the wells where there was no treatment with andrographolide and also added to the wells treated with andrographolide. The treated cells were incubated in 37° C incubator for 24 hours. After 24 hours the supernatant was removed and ELISA was done for IL-8 marker.
The same procedure was followed as explained in the previous section for this experiment. The antimicrobials which were used for this experiment were thymol, terpineol, Triclosan (TCN) and Trichlorocarban (TCC). The used concentrations of these antimicrobials and the concentration of the IL-8 marker after the treatment are summarized in the following Table 9. Table - 9

IL-8 [4] = assay: IL-8 ELISA in keratinocytes induced with LPS, heat killed or live P. acnes
Method: (§2) The procedure used to measure the anti-inflammatory potential of the various samples was as follows: The primary keratinocytes were seeded in a 24 well plate (80000 cell/well). On attaining full confluency, the cells were pretreated with the active for 24 hours. Inflammation was induced either through using LPS or through use of live and heat treated P. acnes for 24 hours. The cell-supernatant was then taken and frozen. The cytokine levels in these supernatants were detected by ELISA.
The experiments as shown in Table - 6 were studies using keratinocyte cell lines and the IL-8 concentration was measured. Table - 6
Examples K, 9 and 10: Experiments similar to J, 7 and 8 except that live p.acne was used

TNF-alpha [5] = assay: TNF-alpha ELISA in primary keratinocytes, LPS-induced inflammation; conditions: primary keratinocytes pretreated 24 hours with 0.001% active, 25 µg LPS; control 283
Method: as §2

IL-17 [6] = assay: Co-treatment with different actives, cytokine ELISA in PBMCs; conditions: co-treatment with 0.001% active, 25 ng PMA/ 1 µg lonomycin; control 2244
TNF-alpha [7] = assay: TNF-alpha ELISA in PBMCs pretreated with active, induced with PMA/ionomycin; conditions: 0.001% active, 25 ng PMA/ 1 µg lonomycin, control 5384, lower = more anti-inflammatory
Method: as §1
The experiments were conducted using a similar procedure as earlier except that TNF-alpha ELISA was measured as a marker. Table -2

bacterial cells = assay: Antibacterial contact-time kill test (pour plate count after neutralisation); conditions: 0.2% TCC or 0.2% thymol + 0.5% terpineol
Method: Efficacy of two compositions as shown in Table - 4 were measured as follows: The O.D of the bacterial cells were adjusted such that it corresponds to 1X10^8 cells of bacteria. 1ml of the bacterial culture was taken and added to 9 ml of the test solution (containing the antimicrobial active). The mixture was kept for the desired amount of time after which it was neutralized by adding 1 ml of mix to the 9 ml of D/E neutralizer. It was then serially diluted till 10^5. The number of bacteria was then enumerated by using the pour plate method.

[8] = Table 9: PBMCs, Andrographolide pre-treatment (0.001% per procedure), P.acne treated with 0.05% Thymol, 0.05% Terpineol, 0.2% TCC, 0.2% TCN or 0.2% Silver Oxide, P.acne alone 641.5

CCC(C)(C)C(=O)O[C@H]1C[C@@H](C)C=C2C=C[C@H](C)[C@H](CC[C@@H]3C[C@@H](O)CC(=O)O3)[C@H]21 [Simvastatin, reference compound]
IL-17 concentration (IL-17 [1]): 493 pg/mL

[Ag+].[Ag+].[O-2] [Silver Oxide, silver oxide, reference compound]
TNF-alpha concentration (TNF-alpha [2]): 494.3 pg/mL | IL-8 concentration (IL-8 [3]; [8]): 599.8 pg/mL

C=C1CC[C@@H]2[C@](C)(CO)[C@H](O)CC[C@@]2(C)[C@@H]1C/C=C1/C(=O)OC[C@H]1O [Andrographolide, andrographolide]
IL-17 concentration (IL-17 [1]): 143 pg/mL | TNF-alpha concentration (TNF-alpha [2]): 231.15 pg/mL | IL-8 concentration (IL-8 [4]; 0.01% active, inducer 50 µg LPS, control 649): 229 pg/mL | IL-8 concentration (IL-8 [4]; 0.01% active, inducer heat killed P. acnes, control 2238): 1088 pg/mL | IL-8 concentration (IL-8 [4]; 0.01% active, inducer live P. acnes, control 558): 337 pg/mL | IL-8 concentration (IL-8 [4]; 0.1% active, inducer 50 µg LPS, control 649): 78 pg/mL | IL-8 concentration (IL-8 [4]; 0.1% active, inducer heat killed P. acnes, control 2238): 230 pg/mL | IL-8 concentration (IL-8 [4]; 0.1% active, inducer live P. acnes, control 558): 205 pg/mL | IL-8 concentration (IL-8 [3]; Table 8: PBMCs pre-treated with 0.001% Andrographolide for 24 hours and/or P.acne treated with thymol (0.05%) and terpineol (0.05%) for 30 seconds, P. acnes alone 957): 400 pg/mL | IL-8 concentration (IL-8 [3]; [8]): 276.48 pg/mL | TNF-alpha concentration (TNF-alpha [5]): 156 pg/mL | IL-17 concentration (IL-17 [6]): 1187 pg/mL | TNF-alpha concentration (TNF-alpha [7]): 58 pg/mL

Cc1ccc(C(C)C)c(O)c1 [Thymol, thymol]
TNF-alpha concentration (TNF-alpha [2]): 546.94 pg/mL | IL-8 concentration (IL-8 [3]; [8]): 546.38 pg/mL

Oc1cc(Cl)ccc1Oc1ccc(Cl)cc1Cl [TCN, Triclosan, reference compound]
IL-8 concentration (IL-8 [3]; [8]): 613.15 pg/mL

CC1=C(/C=C/C(C)=C/C=C/C(C)=C/CO)C(C)(C)CCC1 [Retinol]
IL-17 concentration (IL-17 [6]): 2006 pg/mL

CC1=C(/C=C/C(C)=C/C=C/C(C)=C/C(=O)O)C(C)(C)CCC1 [Retinoic acid]
IL-17 concentration (IL-17 [6]): 2762 pg/mL

O=C(Nc1ccc(Cl)cc1)Nc1ccc(Cl)c(Cl)c1 [TCC, Trichlorocarbanilide]
Log CFU/ml (bacterial cells; contact time 15 seconds, 1X10^8 cells of bacteria): 7.1 Log CFU/ml | Log CFU/ml (bacterial cells; contact time 30 seconds): 7.1 Log CFU/ml | Log CFU/ml (bacterial cells; contact time 1 minute): 7.1 Log CFU/ml | Log CFU/ml (bacterial cells; contact time 5 minutes): 7.1 Log CFU/ml | IL-8 concentration (IL-8 [3]; [8]): 626.48 pg/mL
